From patent US20260216166A1, “COMPOUND FOR TREATMENT OF ERECTILE DYSFUNCTION” (Initiator Pharma A/S, priority 2023, published 2026)
Entries after “also recorded” stand apart in the source; their conditions may differ.

How the values were obtained:
Format in all cases: in vivo, human
[1] = test system: male subjects with erectile dysfunction (ED); experiment: IIEF-15 questionnaire after repeat single oral doses in male subjects with ED
Description: The international index of erectile function (IIEF-15) questionnaire is a validated, multi-dimensional, self-administered investigation that has been found useful in the clinical assessment of erectile dysfunction and treatment outcomes in clinical trials. A score of 0-5 is awarded to each of the 15 questions that examine the main domains of male sexual function: erectile function, orgasmic function, sexual desire and intercourse satisfaction.
(§1) 130 subjects were divided into 3 groups upon which the study was conducted in parallel. Each subject was dosed on four occasions with either 5 mg IP2015, 10 mg IP2015 or matched placebo. In each group, subjects were randomised evenly to each of the three study treatments and received the same treatment at each visit.
The study lasted approximately 8 weeks and consisted of the following: • A screening visit (up to 21 days prior to the baseline visit) • A baseline visit (Day −7). • Outpatient visits on Week 1 (Day 1), Week 2, Week 3 and Week 4 • A follow-up visit a minimum of 7 to 10 days after their final dose.
On Day-7, and at the Week 1 (Day 1), Week 2, Week 3, Week 4 and Follow-up visits, all groups were asked to complete the IIEF-15 questionnaire. Group 2 was asked to complete a Visual Stimulation Assessment using a RigiScan Plus Monitor on Day-7, Week 1 (Day 1) and Week 4. Group 2 was also required to provide blood samples for pharmacokinetic assessment on Week 1 (Day 1) and Week 4. Group 3 was required to provide semen samples on Day-7 and Week 4.
(§2) There were three potential study treatments of 5 mg IP2015, 10 mg IP2015 or matched placebo. In each group, subjects were randomised evenly to each of the three study treatments and received the same treatment on each visit. IP2015 or matched placebo was administered once in the morning of Week 1 (Day 1), Week 2, Week 3, and Week 4 as an oral solution in the fasted state. The dose was taken with 240 ml of water at room temperature. Subjects had fasted 2 hours prior to dosing until 4 hours postdose. Water was allowed ad libitum except for 1 hour before and 1 hour after dosing.
(§3) Efficacy was assessed through the International Index of Erectile Function (IIEF)-15 questionnaire. The change from baseline in responses to questions of the IIEF-15 questionnaire, including questions regarding erectile function, orgasmic function, sexual desire, intercourse satisfaction and overall satisfaction domain scores, was determined at different time points of the study. RigiScan assessments during the stimulus assessment, and sperm count and motility by semen sample collection was used for efficacy evaluation. Safety was assessed through AE reporting, 12-lead ECG, vital signs, physical examinations and clinical laboratory evaluations. Pharmacokinetics was assessed by blood sampling.
The results are means±SE. The statistical differences were performed with Mixed Model Repeated Measures (MMRM).

[2] = test system: healthy male subjects; experiment: Phase I ascending single oral dose safety and tolerability in healthy male subjects
Protocol: The study was a Phase I, randomised, double-blind, placebo-controlled, ascending single oral dose, safety, tolerability, pharmacokinetic (PK) and pharmacodynamics (PD) study of IP2015 in healthy male subjects.
Each subject received one oral dose of IP2015 or matched placebo. The starting dose of IP2015 was 0.01 mg in Cohort 1. The dose level was to be escalated to a maximum of 0.05 mg in Cohort 2 and a maximum of 0.2 mg in Cohort 3. The doses in the remaining five cohorts were to be determined based on the dose escalation criteria. In every cohort, no more than 2 subjects were dosed on the first dosing day (1 active; 1 placebo) such that no more than 1 subject received an active IP2015 dose for the first time at each dose level.
The doses used in each cohort were as follows: • Cohort 1-0.01 mg • Cohort 2-0.05 mg • Cohort 3-0.2 mg • Cohort 4-0.6 mg • Cohort 5-1.8 mg • Cohort 6-5.4 mg • Cohort 7-16.2 mg • Cohort 8-10 mg
The study evaluated the clinical safety data from adverse event (AE) reporting, 12-lead electrocardiogram (ECG), cardiac telemetry, vital signs (standing and supine blood pressure (BP), heart rate (HR), oral temperature and clinical laboratory evaluations (chemistry, haematology, urinalysis) and physical examinations in healthy male subjects.
Safety parameters were listed and summarised using descriptive statistics. Pharmacokinetic parameter estimates were calculated using noncompartmental methods. Pharmacokinetic data were listed for each subject/patient and summarised by descriptive statistics.

[3] = test system: male subjects with erectile dysfunction (ED); experiment: Treatment-emergent adverse events after repeat single oral doses in male subjects with ED
Protocol: Treatment-related adverse events are adverse events which could either be possibly or probably related to the treatment.
as §1, §2, §3

COc1cc2ccc(OC3CC4CCC(C3)N4)cc2oc1=O (stereo not drawn) [IP2015, 7-[(8-azabicyclo[3.2.1]octan-3-yl)oxy]-3-methoxy-chromen-2-one]
efficacy in treating erectile dysfunction ([1]; 5 mg individual doses, human subjects, compared to placebo): effective in the treatment of erectile dysfunction; also recorded: effective in treating erectile dysfunction
overall response to questions of IIEF-15 versus baseline ([1]; 5 mg, at follow-up, p=0.0046): significant
overall response to questions of IIEF-15 versus placebo ([1]; 5 mg, at follow-up, p=0.07): tendency
IIEF-15 overall score versus baseline ([1]; 5 mg, p=0.0032): the same was the case
IIEF-15 Q4 (ability to maintain erection), overall score versus baseline ([1]; 5 mg, p=0.056): tendency to difference
IIEF-15 overall score versus placebo ([1]; 5 mg, p=0.10): tendency
IIEF-15 Q4, overall score compared to placebo ([1]; 5 mg, p=0.44): no difference
IIEF-15 Q3, overall score ([1]; 5 mg, versus placebo (p=0.07) and versus baseline (p=0.07)): tendency to difference
IIEF-15 Q3 (ability to penetrate), change from baseline ([1]; 5 mg, week 3, versus placebo (p=0.034) and versus baseline (p=0.046)): significant effect
overall IIEF-15 score change ([1]; low dose of IP2015, clinically significant): 2
incidence of TEAEs ([2]; 0.01 mg to 10 mg dose range): lower incidence of treatment-emergent adverse effects (TEAEs) compared to higher doses; also recorded: relatively low; also recorded: lower side effects than doses of 16.2 mg
mean ECG parameters ([2]; 0.01 mg to 10 mg dose range): no significant treatment- or dose-related trends
vital sign values ([2]; 0.01 mg to 10 mg dose range): no significant treatment- or dose-related trends
subjects with sustained tachycardia for several hours ([2]; 16.2 mg): 2
incidence of side effects ([2]; 16.2 mg compared to 0.01 mg to 10 mg): increased at 16.2 mg compared to the 0.01 mg to 10 mg dose range
subjects reporting at least one TEAE ([2]; 16.2 mg dose group (all subjects)): 4
standing pulse rate ([2]; 16.2 mg, 2, 3, 4, 6, 8, 10 and 12 hours postdose): increases from baseline
supine pulse rate ([2]; 16.2 mg, 6, 8 and 10 hours postdose): increases from baseline
heart rate (ECG) ([2]; 16.2 mg, 8 and 12 hours postdose): increases from baseline
haematology, serum biochemistry or urinalysis data ([2]; healthy males, single oral doses): no significant treatment- or dose-related trends
total TEAEs ([2]; in the 40 subjects who received IP2015, 0.01-16.2 mg): 32
subjects experiencing TEAEs ([2]; of the 40 subjects who received IP2015, 0.01-16.2 mg): 16
discontinuation due to a TEAE ([2]; whole Phase I study): no subjects discontinued due to a TEAE
severity of TEAEs ([2]; whole Phase I study): majority of events were mild in severity
Any TEAE, number of events ([3]; 5 mg, N = 42): 61
Any TEAE, subjects (%) ([3]; 5 mg, N = 42): 32 (76.2%)
Dizziness, number of events ([3]; 5 mg, N = 42): 3
Dizziness, subjects (%) ([3]; 5 mg, N = 42): 3 (7.1%)
Headache, number of events ([3]; 5 mg, N = 42): 15
Headache, subjects (%) ([3]; 5 mg, N = 42): 11 (26.2%)
Mild TEAE, number of events ([3]; 5 mg, N = 42): 56
Mild TEAE, subjects (%) ([3]; 5 mg, N = 42): 29 (69.0%)
Moderate TEAE, number of events ([3]; 5 mg, N = 42): 5
Moderate TEAE, subjects (%) ([3]; 5 mg, N = 42): 3 (7.1%)
Nausea, number of events ([3]; 5 mg, N = 42): 1
Nausea, subjects (%) ([3]; 5 mg, N = 42): 1 (2.4%)
Related TEAE, number of events ([3]; 5 mg, N = 42): 19
Related TEAE, subjects (%) ([3]; 5 mg, N = 42): 10 (23.8%)
Severe TEAE ([3]; 5 mg, N = 42): 0
TEAEs, high dose compared to low dose ([3]; 10 mg versus 5 mg): slightly increased in the high dose compared to the low dose
Any TEAE, number of events ([3]; 10 mg, N = 43): 141
Any TEAE, subjects (%) ([3]; 10 mg, N = 43): 34 (79.1%)
Dizziness, number of events ([3]; 10 mg, N = 43): 15
Dizziness, subjects (%) ([3]; 10 mg, N = 43): 12 (27.9%)
Headache, number of events ([3]; 10 mg, N = 43): 27
Headache, subjects (%) ([3]; 10 mg, N = 43): 16 (37.2%)
Mild TEAE, number of events ([3]; 10 mg, N = 43): 132
Mild TEAE, subjects (%) ([3]; 10 mg, N = 43): 33 (76.7%)
Moderate TEAE, number of events ([3]; 10 mg, N = 43): 9
Moderate TEAE, subjects (%) ([3]; 10 mg, N = 43): 7 (16.3%)
Nausea, number of events ([3]; 10 mg, N = 43): 15
Nausea, subjects (%) ([3]; 10 mg, N = 43): 8 (18.6%)
Related TEAE, number of events ([3]; 10 mg, N = 43): 84
Related TEAE, subjects (%) ([3]; 10 mg, N = 43): 23 (53.5%)
Severe TEAE ([3]; 10 mg, N = 43): 0
severe side effects ([3]; any of the doses (5 mg, 10 mg)): No severe side effects were observed; also recorded: No severe TEAEs were present
treatment-emergent adverse effects versus placebo group ([3]; low-dose (5 mg)): comparable to the placebo group
